Test results: patent US9738656B2, “Pyranodipyridine compound” (Eisai R&D Management Co., Ltd., priority 2015, dated 2017)
Like-named read-outs stand apart in the source and are kept apart here.

Experiments:
[1] = system: AMPA receptor; assay: AMPA-induced intraneuronal calcium entry-suppressing action (primary culture of embryonic rat cerebral cortex neurons, Fura 2-AM); type: cell-based; conditions: AMPA stimulation, intracellular calcium increase, read-out: IC50 for AMPA inhibition
Excerpt: The present inventors conducted the following tests, in order to confirm the effects of the compounds of the present invention. With regard to the AMPA receptor inhibitory action of the compounds, AMPA-induced intraneuronal calcium entry-suppressing action was examined using a primary culture system of embryonic rat cerebral cortex neurons. With regard to the anticonvulsant action of the compounds, 6 Hz (44 mA) stimulation-induced convulsions known as a treatment-resistant convulsion model were used. AMPA inhibitor-induced central nervous system depressant action such as loss of coordination was evaluated using a rotarod performance test.
AMPA-Induced Intraneuronal Calcium Entry-Suppressing Action
<Culture conditions> Whole fetuses were removed from the uteri of Wistar rats at embryonic day 18 (Charles River Japan) anesthetized with isoflurane. Whole brains were removed from the whole fetuses, and the cerebral cortex was separated in Leibovitz's L-15 medium or Hanks balanced salt solution containing 20% fetal bovine serum. The resulting material was treated with trypsin/DNase solution at 37° C. for 45 to 60 minutes. After the serum was added to stop the trypsin reaction, the resulting material was centrifuged at 1200 to 1500 rpm for 3 to 5 minutes. After the supernatant was removed, Neurobasal medium (containing 2% B-27 supplement and the like; hereinafter “Neurobasal medium”) was added, and the cells were uniformly dispersed by gently pipetting. The cell suspension was slightly stirred, and then filtered through a nylon mesh filter. Viable cells were counted using a hemocytometer, and diluted with Neurobasal medium to 8 to 10×10^5 cells/mL. The cells were seeded into 96 well plates at 100 μL per well and cultured in a CO2 incubator (5% CO2, 37° C.). The medium was replaced after 24 hours, and neurons cultured for 7 to 21 days were used.
On the day of the assay, the medium was removed and replaced with a calcium measurement solution containing 5 to 10 μmol/L of Fura 2-AM (140 mmol/L sodium chloride, 5 mmol/L potassium chloride, 2 mmol/L magnesium chloride, 3 mmol/L calcium chloride, 24 mmol/L D(+)-glucose, 10 mmol/L HEPES, 1 μmol/L MK-801, pH 7.4), and the cells were treated in a CO2 incubator (5% CO2, 37° C.) for 1 to 2 hours. The calcium measurement solution containing the Fura-2 AM solution was subsequently removed, and the neurons in each well were washed twice with the calcium measurement solution for each well, and then 50 μL of the calcium measurement solution was added to each well. Subsequently, 50 μL of a test compound or medium prepared at a concentration 3-fold higher than the final concentration was added, and the cells were pre-treated for about 15 minutes. The plates were subsequently placed on the Fluorescence Drug Screening System 6000 (Hamamatsu Photonics K.K.). The cells were stimulated by adding to each well 50 μL of an AMPA stimulating solution prepared to 3.3 μmol/L with the calcium measurement solution. Changes in calcium concentration were measured as the changes in fluorescence intensity at excitation wavelengths of 340 nm and 380 nm (measurement wavelength: 540 nm). The rate of change of the intracellular calcium concentration was calculated according to the following equation: Rate of increase of the intracellular calcium concentration (% control)=(Tpost−Tpre)/(Cpost−Cpre)×100
wherein Tpost: the proportion of fluorescence of sample wells after stimulation; Tpro: the proportion of fluorescence of sample wells before stimulation; Cpost: the proportion of fluorescence of control wells after stimulation; and Cpre: the proportion of fluorescence of control wells before stimulation.
The IC50 value of the test compound for AMPA inhibition was determined from the rates of increase of the intracellular calcium concentration at various concentrations.

[2] = system: male ddY mice; assay: Rotarod performance test-1; type: in vivo; conditions: oral, 25 minutes after administration, dose at which time of fall is reduced to 50% of medium control
Method: (§1) With regard to the AMPA receptor inhibitory action of the compounds, AMPA-induced intraneuronal calcium entry-suppressing action was examined using a primary culture system of embryonic rat cerebral cortex neurons. […] AMPA inhibitor-induced central nervous system depressant action such as loss of coordination was evaluated using a rotarod performance test.
Rotarod Performance Test-1
(§2) A rotarod (MK-660C from Muromachi Kikai Co., Ltd.) was used for the measurement. The rod (bar) was controlled to be gradually accelerated from its stationary state to a speed of 40 rotations/minute after 180 seconds. As the animals, 5 or 6-week-old male ddY mice (Japan SLC, Inc.) were used. On the day on which the test was performed, the mice were trained under the above-described measurement conditions, and mice that were able to ride on the rod for 1 minute or longer with good reproducibility were selected and subjected to the test.
Each of the compounds was dissolved in a medium (a solution prepared by adding DMSO to a 0.5% methylcellulose solution to a final concentration of 10%. As required, 0.5 to 5% of 1 mol/L hydrochloric acid and 5% Cremophor™ were added), and then orally administered to the mice in optimum four doses between 0.5 to 10 mg/kg. As the control, only the medium was orally administered. After a lapse of 25 minutes from the oral administration of each compound, the mice were subjected to the rotarod performance test. Five to twenty-five mice were used for each compound group.

[3] = system: male ddY mice; assay: Murine 6 Hz convulsion models (6 Hz, 44 mA corneal stimulation); type: in vivo; conditions: for ED50: Mus musculus, 25 min; for Therapeutic Index: TD50/ED50 (rotarod test-1 / 6 Hz convulsion model)
Method: as §1
Immediately after the rotarod performance test-1 was completed, the cornea was stimulated by passing an electrical current (6 Hz, 44 mA, 0.2-millisecond pulse, for 3 seconds) from a copper electrode moistened with physiological saline, and the presence or absence of the development of a seizure was observed. The seizure was determined by the development of akinesia, jaw and forelimb clonus, whisker tremors, and Straub tail.
Further, for the purpose of evaluating the safety margin of each of the compounds of the present invention, the therapeutic index (TD50/ED50) was calculated by comparing the seizure inhibitory action (ED50) in the 6 Hz convulsion models and the neurotoxic action (TD50) in the rotarod performance test-1.

[4] = system: male ddY mice; assay: Rotarod performance test-2; type: in vivo; conditions: for Time of Fall: mice, oral at the ED50 dose of the 6 Hz model, 25 minutes after administration; for Ratio Relative to the Control Compound: time of fall relative to control compound
Method: Rotarod Performance Test-2
as §2
As the control, only the medium was orally administered. After a lapse of 25 minutes from the oral administration of each compound, the mice were subjected to the rotarod performance test. Five or six mice were used for each compound group. For each compound, the time until the mice fell from the rotarod was measured.

[5] = mice, 6 Hz 44 mA stimulation-induced seizure, oral, after rotarod test-1 (25 minutes after administration), read-out: ED50

Row | SMILES | IC50 [1] | TD50 [2] | ED50 ([3]; po) | Therapeutic Index ([3]; mice) | Time of Fall ([4]; Table 3) | Ratio Relative to the Control Compound ([4]; Table 3) | Time of Fall ([4]; Table 4) | Ratio Relative to the Control Compound ([4]; Table 4) | ED50 [3, 5]
1 | Cc1ccc(-n2c3c(cc(-c4cccc(F)c4C#N)c2=O)-c2ncccc2OC3)cn1 [Example 3, 2-fluoro-6-(7-(6-methylpyridin-3-yl)-8-oxo-7,8-dihydro-6H-pyrano[3,2-b:5,4-b′]dipyridin-9-yl)benzonitrile] | 10.4 nM | 2.47 mg/kg, p.o. | 1.21 mg/kg | 2.04 | 124.7 s | 10.2 |  |  | 
2 | N#Cc1c(F)cccc1-c1cc2c(n(-c3cccnc3)c1=O)COc1cc(F)cnc1-2 [Example 14, 2-fluoro-6-(3-fluoro-8-oxo-7-(pyridin-3-yl)-7,8-dihydro-6H-pyrano[3,2-b:5,4-b′]dipyridin-9-yl)benzonitrile] | 19.4 nM | 4.76 mg/kg, p.o. | 2.09 mg/kg | 2.27 |  |  | 139.2 s | 9.7 | 
3 | N#Cc1c(F)cccc1-c1cc2c(n(-c3cccnc3)c1=O)COc1cccc(F)c1-2 [Example 16, 2-fluoro-6-(10-fluoro-3-oxo-4-(pyridin-3-yl)-4,5-dihydro-3H-chromeno[3,4-b]pyridin-2-yl)benzonitrile] | < 8 nM | 1.73 mg/kg, p.o. | 1.05 mg/kg | 1.65 |  |  | 92.8 s | 6.5 | 
4 | N#Cc1ncccc1-c1cc2c(n(-c3ccc(F)cc3)c1=O)COc1cccnc1-2 [Example 11, 3-(7-(4-fluorophenyl)-8-oxo-7,8-dihydro-6H-pyrano[3,2-b:5,4-b′]dipyridin-9-yl)picolinonitrile] | 26.3 nM | 5.05 mg/kg, p.o. |  | 2.99 | 114.7 s | 9.4 |  |  | 1.69 mg/kg
5 | N#Cc1c(F)ccc(F)c1-c1cc2c(n(-c3cccnc3)c1=O)COc1cccnc1-2 [Example 19, 3,6-difluoro-2-(8-oxo-7-(pyridin-3-yl)-7,8-dihydro-6H-pyrano[3,2-b:5,4-b′]dipyridin-9-yl)benzonitrile] | 23.4 nM | 3.25 mg/kg, p.o. | 2 mg/kg | 1.63 |  |  | 121.7 s | 8.5 | 
6 | O=c1c(-c2cccc(F)c2Cl)cc2c(n1-c1cncc(F)c1)COc1cccnc1-2 [Example 17, 9-(2-chloro-3-fluorophenyl)-7-(5-fluoropyridin-3-yl)-6H-pyrano[3,2-b:5,4-b′]dipyridin-8(7H)-one] | 17.7 nM | 4.27 mg/kg, p.o. | 2 mg/kg | 2.14 |  |  | 147.0 s | 10.3 | 
7 | COc1ncc(-n2c3c(cc(-c4cccc(F)c4C#N)c2=O)-c2ncccc2OC3)cn1 [Example 5, 2-fluoro-6-(7-(2-methoxypyrimidin-5-yl)-8-oxo-7,8-dihydro-6H-pyrano[3,2-b:5,4-b′]dipyridin-9-yl)benzonitrile] | 31.8 nM | 6.53 mg/kg, p.o. |  | 2.02 |  |  | 108.7 s | 7.6 | 3.23 mg/kg
8 | O=c1c(-c2ccccc2F)cc2c(n1-c1ccccc1)COc1cccnc1-2 [Example 9, 9-(2-fluorophenyl)-7-phenyl-6H-pyrano[3,2-b:5,4-b′]dipyridin-8(7H)-one] | 50.9 nM | 9.55 mg/kg, p.o. |  | 2.83 | 109.7 s | 9.0 |  |  | 3.38 mg/kg
9 | O=c1c(-c2c(F)c(F)cc(F)c2F)cc2c(n1-c1cccnc1)COc1cccnc1-2 [Example 6, 7-(pyridin-3-yl)-9-(2,3,5,6-tetrafluorophenyl)-6H-pyrano[3,2-b:5,4-b′]dipyridin-8(7H)-one] | 34.6 nM | 4.44 mg/kg, p.o. | 2.86 mg/kg | 1.55 | 68.0 s | 5.6 |  |  | 
10 | N#Cc1ncccc1-c1cc2c(n(-c3ccccc3F)c1=O)COc1cccnc1-2 [Example 12, 3-(7-(2-fluorophenyl)-8-oxo-7,8-dihydro-6H-pyrano[3,2-b:5,4-b′]dipyridin-9-yl)picolinonitrile] | 33 nM | 3.06 mg/kg, p.o. | 1.66 mg/kg | 1.84 | 80.5 s | 6.6 |  |  | 
11 | N#Cc1c(F)cccc1-c1cc2c(n(-c3cncc(F)c3)c1=O)COc1cccnc1-2 [Example 15, 2-fluoro-6-(7-(5-fluoropyridin-3-yl)-8-oxo-7,8-dihydro-6H-pyrano[3,2-b:5,4-b′]dipyridin-9-yl)benzonitrile] | 8.2 nM | 2.67 mg/kg, p.o. | 1.41 mg/kg | 1.89 |  |  | 100.0 s | 7.0 | 
